Experimental data from patent US20160166487A1, “TOPICAL COMPOSITIONS FOR TREATMENT OF EXCESSIVE SWEATING AND METHODS OF USE THEREOF” (GLAXOSMITHKLINE INTELLECTUAL PROPERTY DEVELOPMENT LIMITED, priority 2013, published 2016).

Legend:
[1] = MALDI imaging of distribution in skin layers; type: in vitro ADME, human; conditions: twenty-four hours after single finite topical dose
From the text: Matrix-assisted laser desorption/ionization (MALDI) has emerged as a powerful and diverse technology for analyzing the spatial distribution of endogenous and exogenous compounds directly from a tissue section. [See Seeley E H, Caprioli R M. MALDI imaging mass spectrometry of human tissue: method challenges and clinical perspectives. Trends Biotechnol. 29(3), 136-143 (2011); and Svatos A. Mass spectrometric imaging of small molecules. Trends Biotechnol. 28(8), 425-434 (2010)]. […] Anal Bioanal Chem. (2013); 405(4):1159-70]. MALDI imaging in human skin tissue sections: focus on various matrices and enzymes.

[2] = 0.5 mg (500 mcg) inhaled once daily for 10 days, thorough QT study; cited from earlier work
[3] = Irritation potential of topical solution; conditions: solution comprising 2.2% w/w umeclidinium bromide
[4] = Population pharmacokinetic model of IV and occluded axilla plasma data; type: in vivo, human
From the text: Of the drug that was available systemically, 9.70% (66.7%) was absorbed through a zero order process.

[5] = Clinical study, single topical [14C] umeclidinium dose to axilla or palm of healthy male subjects; type: in vivo, human
Procedure: Up to four cohorts were to be enrolled (Cohort A: unoccluded axilla; Cohort B: occluded axilla; Cohort C: unoccluded palm; Cohort D: occluded palm). Six subjects were to be dosed in each cohort and complete the study procedures.
On the day of dosing, subjects will receive the study drug applied to the axilla or palm. Each subject will only receive a single dose of study drug which will be applied to the test site and remain on the application site for 8 hours. Serial blood samples will be collected throughout treatment. An interim analysis using simulations will be conducted after each cohort to determine the likelihood of exceeding the safety cover for Cmax or AUC and the likelihood of obtaining quantifiable concentrations sufficient to determine the half-life in the subsequent cohorts.

OC(c1ccccc1)(c1ccccc1)C12CC[N+](CCOCc3ccccc3)(CC1)CC2 [umeclidinium, 4-[hydroxy(diphenyl)methyl]-1-{2-[(phenylmethyl)oxy]ethyl}-1-azoniabicyclo[2.2.2]octane]
qualitative distribution in the skin layers [1]: penetrated to the deeper sections of the dermis and accumulated in the area where the sweat glands are present
tolerability [2]: well tolerated
irritation potential [3]: low irritation potential
estimated absolute plasma bioavailability, mean (RSE %) ([4]; administration to occluded axilla, RSE 55.3%): 0.19%
share of systemically available drug absorbed through a zero order process, mean (RSE %) ([4]; occluded axilla, RSE 66.7%): 9.70%
percent dose recovered from the skin surface, mean ([5]; Cohort A, unoccluded axilla, end of 8 hour application, range 77.7-84.1%): 80.6%
median time to maximum plasma concentration ([5]; Cohort A, unoccluded axilla, range: 12 h-30 h): 13 h
percent dose recovered from the skin surface, mean ([5]; Cohort B, occluded axilla, range 69.2%-81.7%): 75.4%
median time to maximum concentration ([5]; Cohort B, occluded axilla, range: 2 h-24 h): 13 h
plasma concentrations ([5]; Cohort D, occluded palm): no quantifiable plasma concentrations
percent dose recovered from the skin surface, mean ([5]; Cohort D, occluded palm, range 45.6%-59.9%): 52.5%
